Patent US12378256B2, “Heterocyclic compound” (Takeda Pharmaceutical Company Limited, priority 2017, dated 2025)

Key:
[1] = Rat PK test (cassette dosing); assay type: in vivo; conditions: male SD rats, plasma; for Tmax: oral 1 mg/kg and iv 0.1 mg/kg given, route not stated for Tmax, read-out: Tmax (time to reach maximum plasma concentration); for clearance / MRT: intravenous 0.1 mg/kg; for clearance: read-out: CL total (total clearance) (converted); for MRT: read-out: MRT iv (mean residence time)
Experimental: As the rat, 8-week-old male SD rats (Japan SLC, Inc.) were used. They were fed on a solid commercially available diet (CE-2, CLEA Japan, Inc.) and allowed to freely ingest tap water as the drinking water. An intravenous administration solution for the rats was prepared by weighing a test compound, dissolving same in dimethylacetamide (DMA) (Wako Pure Chemical Industries, Ltd.), adding the same volume of 1,3-butanediol (Wako Pure Chemical Industries, Ltd.) and mixing by stirring to give a DMA:1,3-butanediol (1:1, v/v) solution. An oral administration solution was prepared by weighing a test compound, pulverizing same in an agate mortar, and gradually adding 0.5 w/v % aqueous methylcellulose solution to give a suspension. For intravenous administration, the solution was administered into femoral vein of the rats at 0.1 mg/0.5 mL/kg (salt converted to free form). For oral administration, the suspension was administered to the rats at 1 mg/5 mL/kg (salt converted to free form). The cassette dosing method was used for the both administration routes, and the test compound was administered in the following manner. • Compound of Example 20 (intravenous: 8 compounds cassette administration, oral: 5 compounds cassette administration) • Compound of Example 22 (intravenous: 5 compounds cassette administration, oral: 5 compounds cassette administration) • Compound of Example 31 (intravenous: 10 compounds cassette administration, oral: 5 compounds cassette administration) • Compound of Example 36 (intravenous: 10 compounds cassette administration, oral: 5 compounds cassette administration) • Compound of Example 44 (intravenous: 10 compounds cassette administration, oral: 5 compounds cassette administration) • Compound of Example 55 (intravenous: 6 compounds cassette administration, oral: 4 compounds cassette administration) • Compound of Example 74 (intravenous: 10 compounds cassette administration, oral: 5 compounds cassette administration) • Compound of Example 76 (intravenous: 9 compounds cassette administration, oral: 4 compounds cassette administration) • Compound of Example 77 (intravenous: 10 compounds cassette administration, oral: 5 compounds cassette administration) • Compound of Example 102 (intravenous: 10 compounds cassette administration, oral: 5 compounds cassette administration) • Compound of Example 109 (intravenous: 7 compounds cassette administration, oral: 4 compounds cassette administration)
In the case of intravenous administration, blood samples were collected from the tail vein at 5, 10, 15, 30 min, 1, 2, 4, 8 hr after administration, an anticoagulation treatment with heparin sodium (Shimizu Pharmaceutical Co., Ltd.) was performed, and plasma was collected after centrifugation and subjected to the measurement of drug concentration. In the case of oral administration, blood samples were collected from the tail vein at 15, 30 min, 1, 2, 4, 8 hr after administration, an anticoagulation treatment with heparin sodium was performed, and plasma was collected after centrifugation and subjected to the measurement of drug concentration.
All drug concentrations were measured by LC-MS/MS analysis. For a pharmacokinetics test, the plasma (50 μL) was placed in a tube, acetonitrile (150 μL) containing internal standard solution was added and they were mixed on a vortex mixer. Thereafter, the mixture was centrifuged (5000 rpm, 5 min, 4° C.). The supernatant (60 μL) after centrifugation was added to 10 mmol/L ammonium formate (160 μL) added earlier and mixed therewith. This sample was injected to LC/MS/MS. […]

[2] = molecular target: T1, human M1 receptor (hCHRM1) (Homo sapiens, UniProt P11229); assay: Measurement of M1 receptor positive allosteric modulator (M1PAM) activity, calcium fluorescence with acetylcholine at EC20; assay type: cell-based; conditions: for activity (%) at 10 μM: 10 μM test compound, 100% = 1 μM acetylcholine, 0% = DMSO; for EC50: CHO-K1 cells expressing hCHRM1, acetylcholine at EC20 (final 0.8-1.0 nM), read-out: IP value (inflection point in the concentration-dependent curve)
T1 construct: expressed in transfected cells; host or cells: CHO-K1
T1 sequence (P11229 1-460): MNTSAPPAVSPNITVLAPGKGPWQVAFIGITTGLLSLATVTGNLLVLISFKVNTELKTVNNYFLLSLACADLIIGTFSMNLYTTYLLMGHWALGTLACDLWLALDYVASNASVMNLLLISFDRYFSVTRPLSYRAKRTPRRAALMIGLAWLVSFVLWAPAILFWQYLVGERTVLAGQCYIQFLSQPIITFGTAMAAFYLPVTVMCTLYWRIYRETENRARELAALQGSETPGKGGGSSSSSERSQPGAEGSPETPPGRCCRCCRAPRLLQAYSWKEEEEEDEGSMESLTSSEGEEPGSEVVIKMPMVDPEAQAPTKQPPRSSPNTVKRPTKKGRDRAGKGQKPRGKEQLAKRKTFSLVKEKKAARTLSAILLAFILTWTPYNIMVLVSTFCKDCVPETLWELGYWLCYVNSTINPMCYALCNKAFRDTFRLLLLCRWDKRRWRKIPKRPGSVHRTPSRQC
Experimental: Measurement of M1 Receptor Positive Allosteric Modulator (M1PAM) Activity
The activity of a test compound in the presence of acetylcholine at EC20 concentration (final concentration 0.8-1.0 nM), which affords an action corresponding to about 20% of the maximum activity, was measured as PAM activity. The method is as follows. CHO-K1 cells stably expressing a human M1 receptor (hCHRM1) were plated on a 384-well black clear bottom plate (BD Falcon) at 5,000 cells/well, and cultured in an incubator at 37° C., 5% CO2 for 1 day. The medium in the cell plate was removed, and assay buffer A containing calcium indicator (Recording medium (DOJINDO LABORATORIES), 0.1% BSA (Wako Pure Chemical Industries, Ltd.), 2.5 μg/mL Fluo-4 AM (DOJINDO LABORATORIES), 0.08% Pluronic F127 (DOJINDO LABORATORIES), 1.25 mM probenecid (DOJINDO LABORATORIES)) was added at 30 μL/well. The cells were left standing in the incubator at 37° C., 5% CO2 for 30 min, and further left standing at room temperature for 30 min. A test compound prepared by diluting with assay buffer B (HBSS (Invitrogen), 20 mM HEPES (Invitrogen), 0.1% BSA) containing 3.2-4.0 nM acetylcholine was added at 10 μL/well, and the fluorescence was measured by FDSS/μCELL (Hamamatsu Photonics K.K.) for 1 min every for 1 second. With the definition that the amount of change in the fluorescence on addition of acetylcholine (final concentration 1 μM) is 100% and that on addition of DMSO instead of a test compound is 0%, the activity (%) of the test compound was calculated, and the inflection point in the concentration-dependent curve of the test compound was calculated as IP values.

| SMILES | Tmax [1] [h] | clearance [1] [mL/min/kg] | MRT [1] [h] | activity (%) at 10 μM [2] [%] | EC50 [2] [nM] |
| --- | --- | --- | --- | --- | --- |
| O=C(N[C@H]1CCOC[C@@H]1O)c1cc(Cc2ccc(C(=O)NC[C@@H]3CCCO3)c(F)c2)c2occc2n1 [Example 102, 1,5-anhydro-2,3-dideoxy-3-(((7-(3-fluoro-4-(((2S)-tetrahydrofuran-2-ylmethyl)carbamoyl)benzyl)furo[3,2-b]pyridin-5-yl)carbonyl)amino)-L-threo-pentitol] | 1 | 11.7 | 0.9 | 107 | 2.7 |
| Cn1cc(-c2ccc(Cc3cc(C(=O)N[C@H]4CCOC[C@@H]4O)nc4c3OCC4)cc2)cn1 [Example 44, 1,5-anhydro-2,3-dideoxy-3-(((7-(4-(1-methyl-1H-pyrazol-4-yl)benzyl)-2,3-dihydrofuro[3,2-b]pyridin-5-yl)carbonyl)amino)-L-threo-pentitol] | 1.3 | 4.77 | 1.3 | 105 | 1.5 |
| O=C(N[C@H]1CCOC[C@@H]1O)c1cc(Cc2ccc(-n3cccn3)cc2)c2c(n1)CCO2 [Example 22, 1,5-anhydro-2,3-dideoxy-3-(((7-(4-(1H-pyrazol-1-yl)benzyl)-2,3-dihydrofuro[3,2-b]pyridin-5-yl)carbonyl)amino)-L-threo-pentitol] | 2 | 4.67 | 1.9 | 106 | 1.7 |
| COCCNC(=O)c1ccc(Cc2cc(C(=O)N[C@H]3CCOC[C@@H]3O)nc3ccoc23)cc1F [Example 109, 1,5-anhydro-2,3-dideoxy-3-(((7-(3-fluoro-4-((2-methoxyethyl)carbamoyl)benzyl)furo[3,2-b]pyridin-5-yl)carbonyl)amino)-L-threo-pentitol] | 1 | 6.73 | 1.5 | 107 | 2.4 |
| COCCNC(=O)c1ccc(Cc2cc(C(=O)N[C@H]3CCOC[C@@H]3O)nc3c2OCC3)cc1F [Example 76, 1,5-anhydro-2,3-dideoxy-3-(((7-(3-fluoro-4-((2-methoxyethyl)carbamoyl)benzyl)-2,3-dihydrofuro[3,2-b]pyridin-5-yl)carbonyl)amino)-L-threo-pentitol] | 0.8 | 5.58 | 1.2 | 109 | 3.5 |
| Cn1cnc(-c2ccc(Cc3cc(C(=O)N[C@H]4CCOC[C@@H]4O)nc4c3OCC4)cc2)c1 [Example 74, 1,5-anhydro-2,3-dideoxy-3-(((7-(4-(1-methyl-1H-imidazol-4-yl)benzyl)-2,3-dihydrofuro[3,2-b]pyridin-5-yl)carbonyl)amino)-L-threo-pentitol] | 0.8 | 14 | 0.9 | 108 | 1.5 |
| Cn1cc(-c2ccc(Cc3cc(C(=O)N[C@H]4CCOC[C@@H]4O)nc4c3OCC4)cc2)nn1 [Example 31, 1,5-anhydro-2,3-dideoxy-3-(((7-(4-(1-methyl-1H-1,2,3-triazol-4-yl)benzyl)-2,3-dihydrofuro[3,2-b]pyridin-5-yl)carbonyl)amino)-L-threo-pentitol] | 1 | 3.33 | 1.5 | 101 | 1.4 |
| O=C(N[C@H]1CCOC[C@@H]1O)c1cc(Cc2ccc(C(=O)NC[C@@H]3CCCO3)c(F)c2)c2c(n1)CCO2 [Example 77, 1,5-anhydro-2,3-dideoxy-3-(((7-(3-fluoro-4-(((2S)-tetrahydrofuran-2-ylmethyl)carbamoyl)benzyl)-2,3-dihydrofuro[3,2-b]pyridin-5-yl)carbonyl)amino)-L-threo-pentitol] | 1 | 8.13 | 0.8 | 108 | 3.2 |
| Cn1cc(-c2ccc(Cc3cc(C(=O)N[C@H]4CCOC[C@@H]4O)nc4ccoc34)cc2)nn1 [Example 20, 1,5-anhydro-2,3-dideoxy-3-(((7-(4-(1-methyl-1H-1,2,3-triazol-4-yl)benzyl)furo[3,2-b]pyridin-5-yl)carbonyl)amino)-L-threo-pentitol] | 2 | 4.1 | 1.8 | 98 | 0.88 |
| Cn1cc(-c2ccc(C(F)c3cc(C(=O)N[C@H]4CCOC[C@@H]4O)nc4ccoc34)cc2)nn1 (single isomer, unassigned) [Example 55, 1,5-anhydro-2,3-dideoxy-3-(((7-(fluoro(4-(1-methyl-1H-1,2,3-triazol-4-yl)phenyl)methyl)furo[3,2-b]pyridin-5-yl)carbonyl)amino)-L-threo-pentitol] | 1.7 | 30.2 | 0.6 | 107 | 0.63 |
| Cn1cc(-c2ccc(Cc3cc(C(=O)N[C@H]4CCOC[C@@H]4O)nc4ccoc34)cn2)cn1 [Example 36, 1,5-anhydro-2,3-dideoxy-3-(((7-((6-(1-methyl-1H-pyrazol-4-yl)pyridin-3-yl)methyl)furo[3,2-b]pyridin-5-yl)carbonyl)amino)-L-threo-pentitol] | 1.3 | 5.45 | 1.9 | 96 | 1.5 |
